Results on three compounds are retold here after article PMC4815915 (Bioorganic & medicinal chemistry letters, 2015).

Experiment [1] deals with Plasmodium falciparum 3D7 strain. The experiment is described as follows: In vitro antiplasmodial activity against chloroquine-susceptible 3D7 strain. In kind it is cell-based.
In experiment [2] the test system is rat microglia TXB2 generation. Conditions: read-out: TXB2 generation apparent IC50; cited from earlier work.

In the case of `[C-]#[N+]C(C)(C)C[C@@H]1C[C@H](C)[C@H]2CC[C@H](C)[C@@]3([N+]#[C-])CCC(=C)[C@@H]1[C@H]23` [Compound 3, 8,15-diisocyano-11(20)-amphilectene], the “Fold more active than the standard drug CQ (3D7)” value in experiment [1] (antiplasmodial IC50 compared with chloroquine) is 5.5 times.

For the compound `CC(C(=O)O)c1ccc(-c2ccccc2)c(F)c1` (stereo not drawn) [flurbiprofen], the IC50 in experiment [2] is 0.1 µM.

With `CCN(CC)CCCC(C)Nc1ccnc2cc(Cl)ccc12` (stereo not drawn) [CQ, chloroquine], in experiment [1] (Plasmodium falciparum, 3D7, read-out: 3D7 IC50 ± SE), the IC50 was determined as 0.0066 ± 8e-07 µM.
